How the values were obtained:
[1] = relative to cholecalciferol itself; cited from earlier work
[2] = Determination of solubility velocity by ICP-MS in 0.1 M hydrochloride solution; details: 0.1 M HCl, 37° C., 84Sr signal by ICP-MS
Description: Determination of Solubility Velocity by Inductively Coupled Plasma-Mass Spectrometry (ICP-MS)
The solubility is measures as strontium signals over time using ICP-MS. Using this technique it is possible to follow multiple isotopes of the element, here, ^84Sr, ^86Sr, ^87Sr and ^88Sr.
A hydrochloride solution (0.1 M) was added to the sample and the sample then immediately enters, by means of a peristaltic pump, the atomizer of the ICP-MS apparatus. The pump speed was 4.4 ml/min.
The hydrochloride concentration of 0.1 M equals the concentration of HCl in the stomach. The temperature of the HCl solution was 37° C.
The solubility velocity of the compound is obtained by analysing the slopes of the front curves. The first curve represents the experiment and the second curve the apparatus, thus the difference between the slopes of the two curves are used to calculate the solubility velocity by division with the top value.

C=C1/C(=C\C=C2/CCC[C@]3(C)[C@@H]([C@H](C)CCCC(C)(C)O)CC[C@@H]23)C[C@@H](O)C[C@@H]1O [1,25 dihydroxycholecalciferol]
times more effective in terms of bioavailability than cholecalciferol [1]: ten

C=C1CC[C@H](O)C/C1=C/C=C1\CCC[C@]2(C)[C@@H]([C@H](C)CCCC(C)(C)O)CC[C@@H]12 [25-hydroxycholecalciferol]
times more effective in terms of bioavailability than cholecalciferol [1]: five

[Cl-].[Cl-].[Sr+2] [strontium chloride]
solubility velocity in hydrochloride [2]: very high

From patent US8658206B2, “Compositions comprising strontium and vitamin D and uses thereof” (Mokwalo SA, priority 2004, dated 2014)
